Laboratory results taken from patent US8044198B2, “Sirtuin modulating compounds” (Sirtris Pharmaceuticals, Inc., priority 2005, dated 2011).
Like-named read-outs stand apart in the source and are kept apart here.

Target: T1, SIRT1 (Homo sapiens, UniProt Q96EB6)
T1 sequence (Q96EB6 1-747): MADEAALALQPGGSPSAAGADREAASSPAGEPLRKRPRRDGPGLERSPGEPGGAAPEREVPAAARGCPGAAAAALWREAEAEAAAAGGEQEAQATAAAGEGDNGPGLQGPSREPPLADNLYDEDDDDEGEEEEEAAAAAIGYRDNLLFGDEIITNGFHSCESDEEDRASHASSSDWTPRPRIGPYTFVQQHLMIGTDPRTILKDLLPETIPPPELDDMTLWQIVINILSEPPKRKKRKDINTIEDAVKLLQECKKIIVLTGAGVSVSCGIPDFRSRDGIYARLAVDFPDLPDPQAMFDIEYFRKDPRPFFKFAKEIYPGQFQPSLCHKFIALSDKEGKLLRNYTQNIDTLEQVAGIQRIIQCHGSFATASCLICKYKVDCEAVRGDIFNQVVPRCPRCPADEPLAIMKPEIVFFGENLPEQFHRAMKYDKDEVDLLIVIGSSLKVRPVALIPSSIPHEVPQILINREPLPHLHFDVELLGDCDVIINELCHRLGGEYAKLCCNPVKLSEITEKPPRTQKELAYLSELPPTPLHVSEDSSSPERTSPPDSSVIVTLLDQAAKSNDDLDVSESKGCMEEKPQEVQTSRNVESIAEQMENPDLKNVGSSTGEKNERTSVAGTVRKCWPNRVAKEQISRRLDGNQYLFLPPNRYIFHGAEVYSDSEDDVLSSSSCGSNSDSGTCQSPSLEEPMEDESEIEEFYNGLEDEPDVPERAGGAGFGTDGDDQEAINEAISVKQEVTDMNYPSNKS
Assay: SIRT1 mass spectrometry (MS) based deacetylation assay; for FOLD ACT. MS: test concentration or dose not given here
Format: biochemical
Details: for EC50: read-out: ED50 MS ASSAY

[1] = SIRT1 activation, mass spectrometry assay
[2] = fold activation of SIRT1 as determined by MS
[3] = Sirt1 activators, fold activation as determined by MS
[4] = Sirt1 activators, mass spectrometry assay
[5] = SIRT1 fold activation as determined by MS
[6] = fold activation of SIRT1, mass spectrometry assay

Question: What does the source list for `COc1cc(C(=O)Nc2ccccc2-c2cn3ccsc3n2)cc(OC)c1OC` [Compound 204]?
Answer: EC50 [1]: < 5 µM; FOLD ACT. MS [2]: A (A (Fold activation >250%))

Question: How did the “FOLD ACT. MS” value [3] turn out when `O=C1CN(Cc2csc3nc(-c4ccccc4NC(=O)c4cnc5ccccc5n4)cn23)CCN1` [Compound 677] was run?
Answer: The value was “A (A (Fold activation >250%))”.

Question: What about the EC50 [4] of the same molecule?
Answer: The EC50 was less than 5 µM.

Question: With `COc1ccc(C(=O)Nc2cc(-c3nc4ncccc4o3)ccn2)cc1OC` [Compound 63] as the molecule, how does the EC50 [1] read?
Answer: The EC50 was 5 to 50 µM.

Question: How did the EC50 [1] turn out when `COc1cc(F)cc(C(=O)Nc2ccccc2-c2cn3c(CN4CCNCC4)csc3n2)c1` [Compound 743] was run?
Answer: The EC50 was 5 to 50 µM.

Question: What about the “FOLD ACT. MS” value [5] of the same molecule?
Answer: The value was “A (A (Fold activation >250%))”.

Question: Which results are given for `COc1ccc(NC(=S)Nc2cc(-c3nc4ncccc4o3)ccn2)cc1OC` [Compound 660]?
Answer: FOLD ACT. MS [3]: B (B (Fold Activation <250%)); EC50 [4]: 5 to 50 µM

Question: What does the source list for `O=C(Nc1ccccc1-c1cn2c(CN3CCSCC3)csc2n1)c1cnc2ccccc2n1` [Compound 742]?
Answer: EC50 [1]: < 5 µM; FOLD ACT. MS [5]: B (B (Fold Activation <250%))

Question: How did the EC50 [1] turn out when `COc1cc(OC)cc(C(=O)Nc2sccc2-c2nc3ccccc3s2)c1` [Compound 146] was run?
Answer: The EC50 was less than 5 µM.

Question: What about the “FOLD ACT. MS” value [2] of the same molecule?
Answer: The value was “B (B (Fold Activation <250%))”.

Question: Which EC50 [1] does the source give for `CN(C)c1cccc(C(=O)Nc2ccccc2-c2cn3ccccc3n2)c1` [Compound 268] here?
Answer: The EC50 was less than 5 µM.

Question: What about the “FOLD ACT. MS” value [6] of the same molecule?
Answer: The value was “B (B (Fold Activation <250%))”.

Question: For `O=C(Nc1ccccc1-c1cn2c(CN3CCNCC3)csc2n1)c1ccc2ccccc2n1` [Compound 440], which EC50 [1] is on record?
Answer: The EC50 was less than 5 µM.

Question: What about the “FOLD ACT. MS” value [6] of the same molecule?
Answer: The value was “A (A (Fold activation >250%))”.

Question: With `COc1ccc(S(=O)(=O)Nc2cccc(-c3nc4ccncc4s3)c2)cc1OC` [Compound 289] as the molecule, how does the EC50 [1] read?
Answer: The EC50 was 5 to 50 µM.

Question: And the “FOLD ACT. MS” value [6]?
Answer: Its value is “B (B (Fold Activation <250%))”.

Question: How did the EC50 [1] turn out when `c1ccc2oc(N3CCCN(c4nc5ccccc5o4)CC3)nc2c1` [Compound 85] was run?
Answer: Its EC50 is greater than 150 µM.

Question: For `COc1cc(C(=O)Nc2cccc(-c3nc4cnccc4o3)c2)cc(OC)c1OC` [Compound 298], which EC50 [1] is on record?
Answer: The EC50 was 5 to 50 µM.

Question: What about the “FOLD ACT. MS” value [6] of the same molecule?
Answer: Its value is “B (B (Fold Activation <250%))”.

Question: For `N#Cc1cccc(C(=O)Nc2ccccc2-c2nc3cc(CN4CCNCC4)cnc3s2)c1` [Compound 592], which “FOLD ACT. MS” value [3] is on record?
Answer: Its value is “B (B (Fold Activation <250%))”.

Question: And the EC50 [4]?
Answer: The EC50 was less than 5 µM.

Question: With `CN(C)c1cccc(C(=O)Nc2cccc(-c3nc4ccncc4s3)c2)c1` [Compound 113] as the molecule, how does the EC50 [1] read?
Answer: The EC50 was 5 to 50 µM.

Question: What about the “FOLD ACT. MS” value [2] of the same molecule?
Answer: The value was “B (B (Fold Activation <250%))”.

Question: What does the source list for `Cc1nn(-c2ccccc2)nc1C(=O)Nc1ccccc1-c1nc2ccncc2s1` [Compound 390]?
Answer: EC50 [1]: 5 to 50 µM; FOLD ACT. MS [6]: B (B (Fold Activation <250%))

Question: For `COc1cc(C(=O)Nc2ccccc2-c2cn3cccnc3n2)cc(OC)c1OC` [Compound 439], which EC50 [1] is on record?
Answer: Its EC50 is less than 5 µM.

Question: And the “FOLD ACT. MS” value [6]?
Answer: Its value is “B (B (Fold Activation <250%))”.

Question: Which EC50 [1] does the source give for `COc1cc(C(=O)Nc2ccccc2-c2nc3ccncc3s2)cc(OC)c1OC` [Compound 163] here?
Answer: Its EC50 is less than 5 µM.

Question: What about the “FOLD ACT. MS” value [2] of the same molecule?
Answer: Its value is “B (B (Fold Activation <250%))”.

Question: For `CN(C)c1ccc(C(=O)Nc2cccc(-c3nc4ncccc4o3)n2)cc1` [Compound 70], which EC50 [1] is on record?
Answer: The EC50 was 5 to 50 µM.

Question: And the “FOLD ACT. MS” value [2]?
Answer: Its value is “B (B (Fold Activation <250%))”.

Question: With `COc1cc(SC)ccc1C(=O)Nc1cccc(-c2nncn2C)c1` [Compound 83] as the molecule, how does the EC50 [1] read?
Answer: The EC50 was 5 to 50 µM.

Question: What about the “FOLD ACT. MS” value [2] of the same molecule?
Answer: The value was “B (B (Fold Activation <250%))”.

Question: Which results are given for `O=C(Nc1ccccc1-c1cn2c(CN3CCNCC3)csc2n1)c1cc2ccccc2o1` [Compound 624]?
Answer: FOLD ACT. MS [3]: A (A (Fold activation >250%)); EC50 [4]: < 5 µM

Question: Which IC50 (Sirt1 Inhibitors, mass spectrometry assay) does the source give for `O=S(=O)(Nc1cccc(-c2nc3ccncc3s2)c1)c1ccc(S(=O)(=O)c2ccccc2)s1` [Compound 654] here?
Answer: The IC50 was greater than 150 µM.

Question: With `O=C(Nc1ccccc1-c1nc2ccc(CN3CCNCC3)nc2s1)c1ccc(F)c(F)c1` [Compound 728] as the molecule, how does the EC50 [1] read?
Answer: Its EC50 is 5 to 50 µM.

Question: What about the “FOLD ACT. MS” value [5] of the same molecule?
Answer: The value was “A (A (Fold activation >250%))”.

Question: `COc1cccc(OC)c1C(=O)Nc1cccc(-c2nc3ccccc3o2)c1` [Compound 119] was tested. Which EC50 [1] did it give?
Answer: The EC50 was 5 to 50 µM.

Question: And the “FOLD ACT. MS” value [2]?
Answer: The value was “B (B (Fold Activation <250%))”.

Question: `COc1cc(C(=O)N(C)c2ccccc2-c2nc3ncccc3o2)cc(OC)c1OC` [Compound 292, 3,4,5-Trimethoxy-N-methyl-N-(2-oxazolo[4,5-b]pyridin-2-yl-phenyl)-benzamide] was tested. Which EC50 [1] did it give?
Answer: The EC50 was greater than 150 µM.

Question: Which results are given for `COc1ccc(C(=O)Nc2ccc(-c3nc4ccccc4[nH]3)cc2)cc1OC` [Compound 294]?
Answer: EC50 [1]: < 5 µM; FOLD ACT. MS [6]: B (B (Fold Activation <250%))

Question: `COc1cc(NC(=S)Nc2cc(-c3nc4ncccc4o3)ccn2)cc(OC)c1` [Compound 661] was tested. Which “FOLD ACT. MS” value [3] did it give?
Answer: The value was “B (B (Fold Activation <250%))”.

Question: And the EC50 [4]?
Answer: The EC50 was less than 5 µM.

Question: How did the “FOLD ACT. MS” value [3] turn out when `O=C(Nc1ccccc1-c1cn2c(CN3CCNCC3)csc2n1)c1cnccn1` [Compound 543] was run?
Answer: The value was “A (A (Fold activation >250%))”.

Question: And the EC50 [4]?
Answer: The EC50 was less than 5 µM.
